The text below walks through data of ChEMBL document CHEMBL1921742, “9,10-secosteroids, protein kinase inhibitors from the Chinese gorgonian Astrogorgia sp” (Bioorg Med Chem, 2011).

pIC50: −log10 of the molar value.

Test [1] addresses Vascular endothelial growth factor receptor 2 (Homo sapiens, UniProt P35968). The experiment in a line: Inhibition of recombinant human VEGF-R2 using poly(Glu,Tyr)4:1 as substrate.
The target in another test is Aurora kinase B (Homo sapiens, UniProt Q96GD4). The test can be described thus: Inhibition of recombinant human Aurora-B using tetra(LRRWLSG) as substrate.
Test [2] concerns the target Proto-oncogene tyrosine-protein kinase Src (Homo sapiens, UniProt P12931). The experiment in a line: Inhibition of recombinant human SRC using poly(Glu,Tyr)4:1 as substrate.
For test [3], the target named is Hepatocyte growth factor receptor (Homo sapiens, UniProt P08581). The test can be described thus: Inhibition of wild type human MET using poly(Ala,Glu,Lys,Tyr) as substrate.
Test [4] deals with T1, Serine/threonine-protein kinase Nek2 (Homo sapiens, UniProt P51955).
T1 sequence (P51955 whole entry): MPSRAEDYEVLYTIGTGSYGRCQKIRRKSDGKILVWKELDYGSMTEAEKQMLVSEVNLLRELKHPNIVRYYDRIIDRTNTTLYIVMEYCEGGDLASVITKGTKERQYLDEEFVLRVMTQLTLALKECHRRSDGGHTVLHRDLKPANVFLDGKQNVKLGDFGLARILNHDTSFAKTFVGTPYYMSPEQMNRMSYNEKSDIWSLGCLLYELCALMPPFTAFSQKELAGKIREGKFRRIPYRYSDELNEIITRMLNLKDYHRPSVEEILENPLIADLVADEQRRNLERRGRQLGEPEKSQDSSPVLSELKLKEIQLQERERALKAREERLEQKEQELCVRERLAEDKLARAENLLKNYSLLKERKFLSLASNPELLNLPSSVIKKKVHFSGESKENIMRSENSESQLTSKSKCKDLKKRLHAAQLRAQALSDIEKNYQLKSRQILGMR
The experiment in a line: Inhibition of recombinant human NEK2.

The target in test [5] is Serine/threonine-protein kinase pim-1 (Homo sapiens, UniProt P11309). The experiment in a line: Inhibition of recombinant human PIM1.
The target of test [6] is RAC-alpha serine/threonine-protein kinase (Homo sapiens, UniProt P31749). The test can be described thus: Inhibition of recombinant human AKT1 using GSK3 (amino acids 14 to 27) as substrate.
Test [7] deals with Serine/threonine-protein kinase Nek6 (Homo sapiens, UniProt Q9HC98). The test can be described thus: Inhibition of recombinant human NEK6.
In test [8] the target is Serine/threonine-protein kinase PLK1 (Homo sapiens, UniProt P53350). The test can be described thus: Inhibition of recombinant human PLK1 using casein as substrate.
The target in test [9] is ALK tyrosine kinase receptor (Homo sapiens, UniProt Q9UM73). The experiment in a line: Inhibition of recombinant human ALK.
For test [10], the target named is T2, Tyrosine-protein kinase receptor UFO (Homo sapiens, UniProt P30530).
T2 sequence (P30530 whole entry): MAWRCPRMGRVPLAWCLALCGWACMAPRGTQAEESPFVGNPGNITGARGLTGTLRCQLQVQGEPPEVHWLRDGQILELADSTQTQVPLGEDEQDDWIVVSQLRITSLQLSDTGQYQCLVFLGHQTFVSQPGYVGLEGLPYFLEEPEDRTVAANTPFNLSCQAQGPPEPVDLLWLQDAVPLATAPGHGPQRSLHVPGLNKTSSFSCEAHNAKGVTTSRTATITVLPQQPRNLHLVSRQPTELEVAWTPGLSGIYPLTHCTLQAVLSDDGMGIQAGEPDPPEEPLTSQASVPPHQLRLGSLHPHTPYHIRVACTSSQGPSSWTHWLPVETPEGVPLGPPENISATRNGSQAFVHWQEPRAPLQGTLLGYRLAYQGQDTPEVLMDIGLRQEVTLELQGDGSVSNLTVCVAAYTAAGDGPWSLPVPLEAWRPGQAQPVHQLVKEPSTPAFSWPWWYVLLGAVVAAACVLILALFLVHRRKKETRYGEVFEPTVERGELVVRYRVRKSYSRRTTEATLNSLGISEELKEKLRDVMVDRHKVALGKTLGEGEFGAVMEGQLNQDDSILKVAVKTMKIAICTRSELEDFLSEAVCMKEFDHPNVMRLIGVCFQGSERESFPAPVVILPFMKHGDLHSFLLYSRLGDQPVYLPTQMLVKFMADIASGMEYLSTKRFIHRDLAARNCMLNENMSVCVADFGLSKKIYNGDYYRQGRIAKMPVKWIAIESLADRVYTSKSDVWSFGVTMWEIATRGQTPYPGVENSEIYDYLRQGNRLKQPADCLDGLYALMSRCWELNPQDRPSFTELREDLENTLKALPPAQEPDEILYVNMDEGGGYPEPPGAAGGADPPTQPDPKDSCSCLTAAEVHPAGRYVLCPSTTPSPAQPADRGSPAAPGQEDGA
The test can be described thus: Inhibition of recombinant human AXL.

In test [11] the target is Dual specificity mitogen-activated protein kinase kinase 1 (Homo sapiens, UniProt Q02750). The experiment in a line: Inhibition of wild type human MEK1.
Test [12] has as its target Insulin-like growth factor 1 receptor (Homo sapiens, UniProt P08069). The experiment in a line: Inhibition of recombinant human IGF1-R using poly(Glu,Tyr)4:1 as substrate.
Test [13] has as its target T3, NUAK family SNF1-like kinase 1 (Homo sapiens, UniProt O60285).
T3 sequence (O60285 whole entry): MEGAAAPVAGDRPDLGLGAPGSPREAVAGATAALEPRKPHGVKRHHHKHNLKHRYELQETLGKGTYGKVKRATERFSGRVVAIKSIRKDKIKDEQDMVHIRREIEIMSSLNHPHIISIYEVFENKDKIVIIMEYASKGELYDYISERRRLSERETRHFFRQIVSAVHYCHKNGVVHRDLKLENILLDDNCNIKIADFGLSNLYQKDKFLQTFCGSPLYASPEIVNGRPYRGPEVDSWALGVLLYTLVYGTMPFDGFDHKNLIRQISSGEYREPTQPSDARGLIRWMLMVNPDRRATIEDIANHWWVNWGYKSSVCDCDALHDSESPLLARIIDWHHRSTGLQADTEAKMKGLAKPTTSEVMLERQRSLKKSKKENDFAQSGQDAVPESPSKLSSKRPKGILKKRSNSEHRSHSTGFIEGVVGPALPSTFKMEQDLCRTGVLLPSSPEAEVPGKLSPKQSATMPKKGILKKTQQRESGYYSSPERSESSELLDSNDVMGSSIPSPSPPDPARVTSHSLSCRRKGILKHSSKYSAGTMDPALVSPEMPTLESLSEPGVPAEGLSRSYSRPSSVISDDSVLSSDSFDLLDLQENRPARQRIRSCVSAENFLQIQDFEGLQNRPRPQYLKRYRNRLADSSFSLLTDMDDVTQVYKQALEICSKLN
The experiment in a line: Inhibition of recombinant human ARK5.

Test [14] concerns the target Serine/threonine-protein kinase N1 (Homo sapiens, UniProt Q16512). The test can be described thus: Inhibition of recombinant human PRK1.
The target in another test is Focal adhesion kinase 1 (Homo sapiens, UniProt Q05397). The test can be described thus: Inhibition of recombinant human FAK using poly(Glu,Tyr)4:1 as substrate.
Focal adhesion kinase 1, sequence (Q05397 whole entry): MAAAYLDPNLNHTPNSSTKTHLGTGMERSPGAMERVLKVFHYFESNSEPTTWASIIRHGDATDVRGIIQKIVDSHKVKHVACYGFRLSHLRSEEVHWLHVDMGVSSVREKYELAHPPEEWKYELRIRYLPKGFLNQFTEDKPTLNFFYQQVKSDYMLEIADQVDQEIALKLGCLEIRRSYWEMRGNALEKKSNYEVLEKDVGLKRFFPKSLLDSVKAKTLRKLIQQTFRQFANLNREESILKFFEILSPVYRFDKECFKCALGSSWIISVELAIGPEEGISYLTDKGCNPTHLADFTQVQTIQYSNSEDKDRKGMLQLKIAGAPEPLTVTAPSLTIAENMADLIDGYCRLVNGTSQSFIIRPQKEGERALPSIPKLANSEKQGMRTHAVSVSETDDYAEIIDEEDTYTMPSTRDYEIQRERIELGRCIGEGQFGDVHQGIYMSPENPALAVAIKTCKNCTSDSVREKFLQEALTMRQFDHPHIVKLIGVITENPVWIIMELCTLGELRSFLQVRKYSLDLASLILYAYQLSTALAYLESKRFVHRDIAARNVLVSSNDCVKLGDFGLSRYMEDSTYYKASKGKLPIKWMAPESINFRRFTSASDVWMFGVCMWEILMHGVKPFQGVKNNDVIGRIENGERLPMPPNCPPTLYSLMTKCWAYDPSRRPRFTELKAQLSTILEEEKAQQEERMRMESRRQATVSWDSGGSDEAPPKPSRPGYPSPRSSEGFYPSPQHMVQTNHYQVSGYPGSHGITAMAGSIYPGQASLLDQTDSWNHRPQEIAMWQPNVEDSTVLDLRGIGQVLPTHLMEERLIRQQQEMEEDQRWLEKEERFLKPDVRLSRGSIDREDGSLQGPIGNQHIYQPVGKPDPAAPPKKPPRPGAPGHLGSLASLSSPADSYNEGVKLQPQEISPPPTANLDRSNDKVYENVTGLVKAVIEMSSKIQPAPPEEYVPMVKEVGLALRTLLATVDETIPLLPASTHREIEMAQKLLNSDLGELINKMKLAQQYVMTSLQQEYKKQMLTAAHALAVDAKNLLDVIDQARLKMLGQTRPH

Aurora kinase B, sequence (Q96GD4 whole entry): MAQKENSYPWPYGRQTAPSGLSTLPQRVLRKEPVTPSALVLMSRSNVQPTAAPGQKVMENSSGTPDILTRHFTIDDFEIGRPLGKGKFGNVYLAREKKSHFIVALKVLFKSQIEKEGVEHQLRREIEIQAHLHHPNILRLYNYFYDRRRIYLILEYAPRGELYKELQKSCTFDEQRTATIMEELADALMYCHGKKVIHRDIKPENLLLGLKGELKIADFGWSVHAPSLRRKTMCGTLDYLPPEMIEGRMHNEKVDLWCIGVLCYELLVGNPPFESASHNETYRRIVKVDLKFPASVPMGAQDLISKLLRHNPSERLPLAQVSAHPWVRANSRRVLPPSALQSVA
Serine/threonine-protein kinase pim-1, sequence (P11309 whole entry, the tested form may be a part): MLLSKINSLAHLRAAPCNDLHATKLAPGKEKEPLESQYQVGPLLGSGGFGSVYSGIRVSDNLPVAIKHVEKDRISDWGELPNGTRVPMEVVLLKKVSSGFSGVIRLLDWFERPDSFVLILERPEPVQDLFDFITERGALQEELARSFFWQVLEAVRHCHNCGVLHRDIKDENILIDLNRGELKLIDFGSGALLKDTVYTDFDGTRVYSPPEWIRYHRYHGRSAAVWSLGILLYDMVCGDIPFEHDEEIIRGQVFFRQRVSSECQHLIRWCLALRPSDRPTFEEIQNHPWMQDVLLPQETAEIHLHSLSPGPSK
Vascular endothelial growth factor receptor 2, sequence (P35968 whole entry): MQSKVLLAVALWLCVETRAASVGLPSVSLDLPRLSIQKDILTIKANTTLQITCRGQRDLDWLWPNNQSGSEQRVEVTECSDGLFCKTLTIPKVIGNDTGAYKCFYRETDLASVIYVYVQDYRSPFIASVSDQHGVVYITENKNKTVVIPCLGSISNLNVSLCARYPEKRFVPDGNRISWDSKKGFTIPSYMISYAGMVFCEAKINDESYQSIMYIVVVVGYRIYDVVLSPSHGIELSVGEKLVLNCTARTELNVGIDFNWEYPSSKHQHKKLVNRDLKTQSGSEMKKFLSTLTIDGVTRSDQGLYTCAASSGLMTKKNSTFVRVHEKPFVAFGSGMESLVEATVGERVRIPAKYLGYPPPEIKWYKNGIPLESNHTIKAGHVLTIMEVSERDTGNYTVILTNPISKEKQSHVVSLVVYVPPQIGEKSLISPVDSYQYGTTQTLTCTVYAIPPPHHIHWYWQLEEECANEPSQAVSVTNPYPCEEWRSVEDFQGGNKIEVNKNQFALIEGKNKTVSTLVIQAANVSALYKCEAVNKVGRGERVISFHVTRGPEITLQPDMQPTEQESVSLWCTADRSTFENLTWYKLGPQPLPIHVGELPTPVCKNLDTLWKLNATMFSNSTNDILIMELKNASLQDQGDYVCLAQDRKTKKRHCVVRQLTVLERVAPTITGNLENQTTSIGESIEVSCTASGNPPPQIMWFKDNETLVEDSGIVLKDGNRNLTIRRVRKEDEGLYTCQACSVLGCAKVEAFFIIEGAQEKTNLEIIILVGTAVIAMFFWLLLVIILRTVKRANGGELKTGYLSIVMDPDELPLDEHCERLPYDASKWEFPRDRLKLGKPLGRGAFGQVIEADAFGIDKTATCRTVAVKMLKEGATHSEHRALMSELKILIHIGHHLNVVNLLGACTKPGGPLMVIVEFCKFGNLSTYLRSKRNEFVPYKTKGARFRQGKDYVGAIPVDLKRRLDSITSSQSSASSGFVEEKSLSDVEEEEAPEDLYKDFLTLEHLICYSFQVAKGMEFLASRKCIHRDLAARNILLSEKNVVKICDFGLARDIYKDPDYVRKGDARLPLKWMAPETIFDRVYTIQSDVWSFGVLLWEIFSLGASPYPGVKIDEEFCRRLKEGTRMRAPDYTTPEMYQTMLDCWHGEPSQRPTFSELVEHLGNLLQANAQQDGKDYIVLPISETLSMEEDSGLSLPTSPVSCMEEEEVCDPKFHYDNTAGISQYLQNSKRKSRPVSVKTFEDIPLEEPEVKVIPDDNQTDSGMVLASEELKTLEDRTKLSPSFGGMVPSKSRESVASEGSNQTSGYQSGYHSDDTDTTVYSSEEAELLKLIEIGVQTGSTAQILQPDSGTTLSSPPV
Proto-oncogene tyrosine-protein kinase Src, sequence (P12931 2-536 limits assumed): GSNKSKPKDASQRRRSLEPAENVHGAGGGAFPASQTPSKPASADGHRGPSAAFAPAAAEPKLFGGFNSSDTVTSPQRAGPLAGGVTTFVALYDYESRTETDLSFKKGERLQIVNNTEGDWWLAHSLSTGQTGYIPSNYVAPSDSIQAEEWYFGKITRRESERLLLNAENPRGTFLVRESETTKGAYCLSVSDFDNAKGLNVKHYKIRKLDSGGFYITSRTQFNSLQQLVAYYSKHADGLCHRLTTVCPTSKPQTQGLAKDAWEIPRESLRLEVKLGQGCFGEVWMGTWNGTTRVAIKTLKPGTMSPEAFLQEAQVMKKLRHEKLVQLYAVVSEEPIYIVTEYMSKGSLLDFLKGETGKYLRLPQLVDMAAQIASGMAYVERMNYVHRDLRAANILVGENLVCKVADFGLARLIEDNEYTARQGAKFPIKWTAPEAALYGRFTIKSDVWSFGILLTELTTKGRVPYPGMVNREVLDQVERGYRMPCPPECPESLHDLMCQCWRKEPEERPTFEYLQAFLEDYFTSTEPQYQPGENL
Hepatocyte growth factor receptor, sequence (P08581 whole entry): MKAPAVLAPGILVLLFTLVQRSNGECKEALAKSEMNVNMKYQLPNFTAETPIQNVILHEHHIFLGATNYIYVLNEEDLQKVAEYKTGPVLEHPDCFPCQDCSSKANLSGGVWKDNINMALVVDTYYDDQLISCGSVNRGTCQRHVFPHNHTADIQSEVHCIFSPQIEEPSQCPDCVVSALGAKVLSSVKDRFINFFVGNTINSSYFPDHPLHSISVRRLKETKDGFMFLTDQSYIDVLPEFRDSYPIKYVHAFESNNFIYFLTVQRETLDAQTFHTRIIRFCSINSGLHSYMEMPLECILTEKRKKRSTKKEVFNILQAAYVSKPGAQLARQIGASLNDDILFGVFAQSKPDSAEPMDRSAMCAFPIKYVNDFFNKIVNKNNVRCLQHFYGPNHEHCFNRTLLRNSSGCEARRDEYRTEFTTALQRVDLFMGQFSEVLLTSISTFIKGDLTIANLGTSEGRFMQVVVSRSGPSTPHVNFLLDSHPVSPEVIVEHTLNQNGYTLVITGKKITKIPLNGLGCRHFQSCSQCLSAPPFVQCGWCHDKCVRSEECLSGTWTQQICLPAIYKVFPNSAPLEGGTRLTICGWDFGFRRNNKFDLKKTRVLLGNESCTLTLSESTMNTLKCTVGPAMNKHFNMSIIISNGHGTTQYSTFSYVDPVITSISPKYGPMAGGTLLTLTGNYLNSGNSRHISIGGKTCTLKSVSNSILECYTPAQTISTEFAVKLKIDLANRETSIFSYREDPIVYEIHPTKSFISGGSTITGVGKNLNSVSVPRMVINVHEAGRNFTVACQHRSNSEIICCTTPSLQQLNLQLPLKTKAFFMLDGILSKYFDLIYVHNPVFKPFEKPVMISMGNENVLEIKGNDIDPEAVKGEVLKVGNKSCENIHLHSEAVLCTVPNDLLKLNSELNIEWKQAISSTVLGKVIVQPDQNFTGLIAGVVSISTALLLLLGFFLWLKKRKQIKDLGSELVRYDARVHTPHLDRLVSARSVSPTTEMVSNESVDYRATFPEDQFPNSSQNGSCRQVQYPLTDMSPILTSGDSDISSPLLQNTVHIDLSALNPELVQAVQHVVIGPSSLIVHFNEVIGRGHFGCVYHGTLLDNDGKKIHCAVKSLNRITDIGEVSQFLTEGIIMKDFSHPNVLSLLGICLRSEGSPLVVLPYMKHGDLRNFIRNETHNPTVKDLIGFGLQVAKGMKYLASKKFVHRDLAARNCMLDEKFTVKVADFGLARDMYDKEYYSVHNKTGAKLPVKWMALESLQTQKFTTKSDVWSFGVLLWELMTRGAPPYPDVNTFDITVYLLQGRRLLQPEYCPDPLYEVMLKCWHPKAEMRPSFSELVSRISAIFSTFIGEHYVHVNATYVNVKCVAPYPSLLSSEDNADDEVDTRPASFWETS

As usually defined, the pIC50 is −log10 of the IC50, conventionally taken in molar units. For the compound `C=C(CC[C@@H](C)[C@H]1CC[C@H]2[C@H](CCc3cc(O)ccc3C)C(=O)CC[C@]12C)C(C)C`, the negative logarithm of the IC50 (pIC50) was 5.31 in test [1]; below 4.00 on Aurora kinase B; 5.83 in [2]; 4.56 in [3]; below 4.00 in test [4]; below 4.00 in test [5]. The negative-log IC50 (pIC50) is below 4.00 in [6]; below 4.00 in test [7]; 4.00 in test [8]; 5.36 in test [9]; 4.69 in test [10]; below 4.00 in [11]. For the same compound, the negative-log IC50 (pIC50) in test [12] was 5.64; in [13], below 4.00; in [14] it was below 4.00; at Focal adhesion kinase 1, 4.97.
As for `Cc1ccc(O)cc1CC[C@@H]1[C@@H](O)CC[C@]2(C)[C@@H]([C@H](C)/C=C/CC(C)C)CC[C@@H]12` (relative stereo), the pIC50 in test [1] was 5.31; at Aurora kinase B it was 4.42; in test [2], 5.62; in test [4] it was below 4.00; in test [5] it was below 4.00; in [6], below 4.00. Further, the pIC50 in test [7] is below 4.00; in test [8], below 4.00; in test [9], 5.03; in test [10], 4.66; in [11], below 4.00; in test [12], 5.50. The values for the negative-log IC50 (pIC50) (in test [13]; in [14]; on Focal adhesion kinase 1) were below 4.00, below 4.00 and 4.77, respectively.
In the case of `Cc1ccc(O)cc1CC[C@@H]1[C@H](O)CC[C@]2(C)[C@@H]([C@H](C)CCCC(C)C)CC[C@@H]12` [ASTROGORGIADIOL], the negative logarithm of the IC50 (pIC50) in test [1] is 5.36; at Aurora kinase B, 4.60; in [2] it was 5.72; in test [3], 4.11; in test [4] it was below 4.00; in test [5], below 4.00. Further, the negative logarithm of the IC50 (pIC50) in test [6] was below 4.00; in [7], below 4.00; in [8] it was below 4.00; in test [9], 5.12; in test [10] it was 4.77; in [11] it was 4.31. Further, the pIC50 was 5.56 in test [12], below 4.00 in [13], below 4.00 in test [14] and 4.88 at Focal adhesion kinase 1.
On to `Cc1ccc(O)cc1CC[C@@H]1C(=O)CC[C@]2(C)[C@@H]([C@H](C)/C=C/CC(C)C)CC[C@@H]12` [CALICOFEROL A], for which the pIC50 was 5.34 in [1]; below 4.00 at Aurora kinase B; 5.65 in [2]; 4.32 in test [3]; below 4.00 in test [4]; below 4.00 in [5]. Moreover, the negative-log IC50 (pIC50) in test [6] was below 4.00; in [7], below 4.00; in [8] it was below 4.00; in test [9] it was 5.38; in test [10], 4.83; in test [11], below 4.00. Also, the negative logarithm of the IC50 (pIC50) was 5.62 in [12], below 4.00 in test [13], below 4.00 in test [14] and 5.00 at Focal adhesion kinase 1.
`Cc1ccc(O)cc1CC[C@@H]1[C@H](O)CC[C@]2(C)[C@@H]([C@H](C)CCCC(C)C)[C@@H](O)C[C@@H]12` [CALICOFEROL B]: the pIC50 (in test [1]; at Aurora kinase B; in [2]; in test [3]; in test [4]; in [5]) was below 4.00 each time. For the same compound, the pIC50 in test [6], in test [7], in test [8], in test [9], in test [10] and in test [11] was below 4.00 each time. Further, the pIC50 (in [12]; in test [13]; in test [14]; at Focal adhesion kinase 1) was below 4.00 throughout.
Consider `C=C(CC[C@@H](C)[C@H]1CC[C@H]2[C@H](CCc3cc(O)ccc3C)[C@H](O)CC[C@]12C)C(C)C` [CALICOFEROL C], for which the pIC50 (in [1]; at Aurora kinase B; in test [2]; in [3]; in test [4]; in [5]) was below 4.00 each time. Also, the pIC50 in [6], in test [7], in test [8], in [9], in test [10] and in [11] was below 4.00 each time. Further, the negative logarithm of the IC50 (pIC50) (in [12]; in [13]; in test [14]; at Focal adhesion kinase 1) was below 4.00 each time.
As for `Cc1ccc(O)cc1CC[C@@H]1C(=O)CC[C@]2(C)[C@@H]([C@H](C)CCCC(C)C)CC[C@@H]12` [CALICOFEROL E], the pIC50 is 5.22 in [1]; below 4.00 at Aurora kinase B; 5.66 in test [2]; below 4.00 in [4]; below 4.00 in test [5]; below 4.00 in [6]. Further, the pIC50 was below 4.00 in test [7]; below 4.00 in test [8]; 5.33 in test [9]; 4.49 in [10]; below 4.00 in test [11]; 5.61 in [12]. Further, the negative-log IC50 (pIC50) is below 4.00 in test [13], below 4.00 in test [14] and 5.02 on Focal adhesion kinase 1.
With `Cc1ccc(O)cc1CC[C@@H]1C(=O)CC[C@]2(C)[C@@H]([C@H](C)CCCC(C)C)[C@@H](O)C[C@@H]12` [CALICOFEROL I], the negative logarithm of the IC50 (pIC50) (in [1]; on Aurora kinase B; in [2]; in test [3]; in [4]; in test [5]) was below 4.00 each time. In addition, the pIC50 in test [6], in test [7], in test [8], in test [9], in [10] and in test [11] was below 4.00 throughout. The negative logarithm of the IC50 (pIC50) (in test [12]; in [13]; in test [14]; on Focal adhesion kinase 1) was below 4.00 throughout.
